In US9345245B2, “Synthetic compounds for vegetative ABA responses” (THE REGENTS OF THE UNIVERSITY OF CALIFORNIA, priority 2012, dated 2016):

Assays:
[1] = test system: Chlamydomonas; experiment: Colony growth of Chlamydomonas with and without salinity and osmotic stress; format: in vivo; settings: in vivo
Description: FIG. 17. The effect of ABA and its agonists in Physcomitrella patens and Chlamydomonas. Protonemal growth images (A) and quantitative analysis (B) of the effects of ABA and agonists on Phsycomitrella patens. Protonema were grown on 200 μM of specific test chemical for 10 days. […] Pyrabactin bleached protonema. (C) The expression of ABA-responsive genes of Physcomitrella patens. Protonema were treated with 200 μM chemical solutions for 3 h. (D) Colony growth of Chlamydomonas on the chemical with salinity stress and osmotic stress. There was no effect of ABA and LC66C6 on the Chlamydomonas growth with and without stresses.

[2] = test system: ABA-responsive genes; settings: higher concentrations; Park et al., 2009; cited from earlier work
[3] = target: T1, PYL5 (Arabidopsis thaliana, UniProt Q9FLB1); experiment: Receptor-mediated PP2C inhibition assay, receptor PYL5; format: biochemical
T1 construct: 6xHis (N); made in house; BL21[DE3]pLysS for the GST-PP2Cs
T1 sequence (Q9FLB1 1-203): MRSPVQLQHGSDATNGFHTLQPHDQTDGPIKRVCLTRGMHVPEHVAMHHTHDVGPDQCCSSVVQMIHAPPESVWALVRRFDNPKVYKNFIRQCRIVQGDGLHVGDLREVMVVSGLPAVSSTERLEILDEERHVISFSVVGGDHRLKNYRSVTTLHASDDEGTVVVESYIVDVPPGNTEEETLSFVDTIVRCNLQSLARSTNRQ
T1 sequence (Q9CAJ0 23-511 partner): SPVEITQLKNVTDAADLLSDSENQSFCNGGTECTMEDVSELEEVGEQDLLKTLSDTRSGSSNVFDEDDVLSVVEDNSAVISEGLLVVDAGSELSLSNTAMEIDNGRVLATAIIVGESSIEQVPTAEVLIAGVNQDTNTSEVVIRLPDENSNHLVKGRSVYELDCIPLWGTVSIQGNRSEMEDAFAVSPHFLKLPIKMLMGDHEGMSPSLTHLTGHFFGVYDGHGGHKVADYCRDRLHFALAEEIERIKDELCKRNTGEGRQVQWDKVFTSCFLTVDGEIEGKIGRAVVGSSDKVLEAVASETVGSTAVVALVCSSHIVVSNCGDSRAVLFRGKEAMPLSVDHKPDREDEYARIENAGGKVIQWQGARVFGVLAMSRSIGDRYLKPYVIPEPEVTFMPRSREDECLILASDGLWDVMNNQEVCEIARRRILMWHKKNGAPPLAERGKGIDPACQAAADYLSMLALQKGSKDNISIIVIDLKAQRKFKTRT
Description: HAB1 and PYL proteins were expressed and purified as described previously (Park S Y, et al. (2009) Abscisic Acid Inhibits Type 2C Protein Phosphatases via the PYR/PYL Family of START Proteins. Science 324(5930):1068-1071), with minor modifications. To obtain GST-HAB1, -ABI1 and -ABI2 fusion proteins, the HAB1 cDNA was cloned into pGex-2T whereas ABI1 and ABI2 cDNAs were cloned into the vector pGex-4T-1. Expression was conducted in BL21[DE3]pLysS host cells. Transformed cells were pre-cultured overnight, transferred to LB medium and cultured at 30° C. to culture A600 of ˜0.5. The culture was then cooled on ice and MnCl2 added to 4 mM and IPTG added to 0.3 mM. After 16 hours incubation at 15° C., cells were harvested and recombinant proteins were purified on glutathione agarose as described previously (Park S Y, et al. (2009). To obtain 6×His-PYL receptor fusion proteins, receptor cDNAs for all 13 ABA receptors were cloned into the vector pET28 and expressed and purified as described previously (Mosquna A, et al. (2011) Potent and selective activation of abscisic acid receptors in vivo by mutational stabilization of their agonist-bound conformation. PNAS 108(51):20838-20843); this yielded soluble and functional protein (assessed using receptor-mediated PP2C inhibition assays) for all receptors except PYL7, PYL11 and PYL12. […]

SMILES: O=S(=O)(NCc1ccccn1)c1ccc(Br)c2ccccc12 [pyrabactin]
- bleaching of Chlamydomonas (toxicity) [1]: bleached the Chlamydomonas
- ABA-related gene expression in seedlings [2]: induce modest ABA-related gene expression
- PP2C inhibition at saturation ([3]; maximal (saturating) inhibition): ~40%
- IC50 ([3]; read-out: IC50 (activation of PYL5)): 900 nM
